Assay results from paper PMC8016481, “Tachykinin signaling inhibits task-specific behavioral responsiveness in honeybee workers” (eLife, 2021).
“Also recorded” adds a separate entry of the source.

Assays:
TRPR [1] = test system: TRPR
ERK phosphorylation = ERK phosphorylation in brain of worker bees after TRP2 injection or TRP/TRPR knockdown (Western blot); assay type: in vivo, Apis mellifera ligustica; settings: for ERK phosphorylation in brain: 6A
Experimental: Cells were seeded in 24-well plates and starved for 4 hr in serum-free medium to reduce background ERK1/2 activation and eliminate the effects of the change of medium. […] Protein concentration was determined according to the Bradford method using BSA as the standard and the absorption was measured at 595 nm (spectrophotometer DU800, Beckman Coulter, USA), then all the samples were kept in −80°C for further use. For Western blot, equal amounts of total cell lysate (20 μg/lane) were fractionated by SDS-PAGE (10%) and transferred to a PVDF membrane (Millipore, USA) using an iBlot dry blotting system (Invitrogen, USA). The membranes were blocked for 2 hr at room temperature and then incubated with rabbit monoclonal anti-pERK1/2 antibody (Cell Signaling Technology, USA) and anti-rabbit horseradish peroxidase-conjugated secondary antibody (Cell Signaling Technology) according to the manufacturers’ protocols. Antibody reactive bands were visualized using Pierce ECL western blotting substrate (Thermo Fisher Scientific, USA) followed by photographic film exposure. Total ERK1/2 was assessed as a loading control after p-ERK1/2 chemiluminescence detection. Quantification analyses were performed using Gel-Pro Analyzer 4.0 software (Media Cybernetics, USA).
Three independent replicate groups per condition were collected and Western blot analyses were performed: Honeybee brains were carefully dissected and frozen at −80°C until protein extraction. Brain protein extractions were carried out according to our previously described method with some modifications. Briefly, the […] were homogenized with lysis buffer (LB, 8 M urea, 2 M thiourea, 4% CHAPS, 20 mM Tris-base, 30 mM dithiothreitol). The mixture was homogenized for 30 min on ice and sonicated 20 s per 5 min during this time, then centrifuged at 12,000 g and 4°C for 10 min. Ice-cold acetone was added to the collected supernatants, and then the mixture was kept on ice for 30 min for protein precipitation. Subsequently, the mixture was centrifuged at 12,000 g and 4°C for 10 min. The supernatant was discarded and the pellets were resolved in LB and kept at −20°C for further use. Western blot analyses were performed as described in 'TRP/TRPR signaling targets: cAMP, Ca^2+, and ERK' section.

TRPR [2] = test system: TRPR; remark: listed apart in the source
[3] = test system: TRP2-mediated cAMP accumulation; assay: Effect of PTX, CTX, YM-254890 and H89 on TRP2-mediated cAMP accumulation, HEK293 cells expressing TRPR; assay type: cell-based, Homo sapiens; settings: TRP2, Control (no inhibitor)
honeybee TRPR = assay: Competitive binding of TRPs to TRPR in HEK293 cells (displacement of TAMRA-TRP2/TAMRA-TRP3); parameters: species or system Apis mellifera; settings: for competitive binding (residual TAMRA-TRP binding): HEK293

ALMGFQGVRa [TRP2, honeybee tachykinin-related peptide 2, synthesized by SynPeptide]
time by which ERK phosphorylation is near basal levels (TRPR [1]): ≤ 90 min
time of maximal ERK phosphorylation (TRPR [1]): 2 min
ERK phosphorylation in brain (ERK phosphorylation; NB, replicate 1): 0.0746
ERK phosphorylation in brain (ERK phosphorylation; NB, replicate 2): 0.0650
ERK phosphorylation in brain (ERK phosphorylation; NB, replicate 3): 0.0783
ERK phosphorylation in brain (ERK phosphorylation; NF, replicate 1): 0.5050
ERK phosphorylation in brain (ERK phosphorylation; NF, replicate 2): 0.5454
ERK phosphorylation in brain (ERK phosphorylation; NF, replicate 3): 0.5933
ERK phosphorylation in brain (ERK phosphorylation; PF, replicate 1): 0.2191
ERK phosphorylation in brain (ERK phosphorylation; PF, replicate 2): 0.2416
ERK phosphorylation in brain (ERK phosphorylation; PF, replicate 3): 0.2036
level of phosphorylated ERK in brain (ERK phosphorylation; after injection into NBs, PFs and NFs, vs ddH2O): significantly increased
cAMP and Ca2+ signaling, TRP2 compared with TRP3 (TRPR [2]): induced higher cAMP and Ca^2+ signaling than TRP3
increase of cAMP levels (TRPR [2]): more than 10 fold
cAMP accumulation ([3]; Suppl.3A, replicate 1): 9.157
cAMP accumulation ([3]; Suppl.3A, replicate 2): 10.923
cAMP accumulation ([3]; Suppl.3A, replicate 3): 10.206
cAMP accumulation ([3]; Suppl.3B, replicate 1): 86.752
cAMP accumulation ([3]; Suppl.3B, replicate 2): 90.385
cAMP accumulation ([3]; Suppl.3B, replicate 3): 95.777
competitive binding (residual TAMRA-TRP binding) (honeybee TRPR; Log (M) -4, replicate 1): 6.8655
competitive binding (residual TAMRA-TRP binding) (honeybee TRPR; Log (M) -4, replicate 2): 5.4421
competitive binding (residual TAMRA-TRP binding) (honeybee TRPR; Log (M) -4, replicate 3): 6.7148
competitive binding (residual TAMRA-TRP binding) (honeybee TRPR; Log (M) -5, replicate 1): 5.4278
competitive binding (residual TAMRA-TRP binding) (honeybee TRPR; Log (M) -5, replicate 2): 4.8584
competitive binding (residual TAMRA-TRP binding) (honeybee TRPR; Log (M) -5, replicate 3): 7.2943
competitive binding (residual TAMRA-TRP binding) (honeybee TRPR; Log (M) -6, replicate 1): 7.7659
competitive binding (residual TAMRA-TRP binding) (honeybee TRPR; Log (M) -6, replicate 2): 5.3036
competitive binding (residual TAMRA-TRP binding) (honeybee TRPR; Log (M) -6, replicate 3): 8.6345
competitive binding (residual TAMRA-TRP binding) (honeybee TRPR; Log (M) -7, replicate 1): 18.9281
competitive binding (residual TAMRA-TRP binding) (honeybee TRPR; Log (M) -7, replicate 2): 12.1701
competitive binding (residual TAMRA-TRP binding) (honeybee TRPR; Log (M) -7, replicate 3): 11.2282
competitive binding (residual TAMRA-TRP binding) (honeybee TRPR; Log (M) -8, replicate 1): 39.3417
competitive binding (residual TAMRA-TRP binding) (honeybee TRPR; Log (M) -8, replicate 2): 38.9933
competitive binding (residual TAMRA-TRP binding) (honeybee TRPR; Log (M) -8, replicate 3): 33.9876
competitive binding (residual TAMRA-TRP binding) (honeybee TRPR; Log (M) -9, replicate 1): 62.0505
competitive binding (residual TAMRA-TRP binding) (honeybee TRPR; Log (M) -9, replicate 2): 61.6487
competitive binding (residual TAMRA-TRP binding) (honeybee TRPR; Log (M) -9, replicate 3): 64.6985
competitive binding (residual TAMRA-TRP binding) (honeybee TRPR; Log (M) -10, replicate 1): 72.1434
competitive binding (residual TAMRA-TRP binding) (honeybee TRPR; Log (M) -10, replicate 2): 80.3662
competitive binding (residual TAMRA-TRP binding) (honeybee TRPR; Log (M) -10, replicate 3): 73.4408
competitive binding (residual TAMRA-TRP binding) (honeybee TRPR; Log (M) -11, replicate 1): 96.7383
competitive binding (residual TAMRA-TRP binding) (honeybee TRPR; Log (M) -11, replicate 2): 91.1557
competitive binding (residual TAMRA-TRP binding) (honeybee TRPR; Log (M) -11, replicate 3): 93.6625
competitive binding (residual TAMRA-TRP binding) (honeybee TRPR; Log (M) -12, replicate 1): 92.6094
competitive binding (residual TAMRA-TRP binding) (honeybee TRPR; Log (M) -12, replicate 2): 98.3333
competitive binding (residual TAMRA-TRP binding) (honeybee TRPR; Log (M) -12, replicate 3): 97.4974
affinity of TRPR, TRP2 compared with TRP3 (honeybee TRPR; competitive binding assays, HEK293 and Sf21 cells): stronger binding affinity to the receptor TRPR than TRP3; also recorded: higher for TRP2 than for TRP3; also recorded: higher affinity to TRPR
